Measurements published in patent US9546173B2 (Novartis AG, priority 2012, dated 2017).

Target: activated ERK2 (Homo sapiens (Human), UniProt P28482)
Experiment: Activated ERK2 kinase assay (AlphaScreen, ERKtide peptide phosphorylation)
Type: biochemical
Conditions: […] ERK2, 200 nM ERKtide peptide, 35 μM ATP, 30 min preincubation; read-out: ERK2 IC50
Text: Production of Activated ERK2 Protein:
Activated ERK2 protein was generated in insect cells by co-expression with a constitutively active form of MEK1. The ERK2 protein was expressed and purified as a nHis-PreScission-ERK2 tagged protein and then proteolytically processed to the full-length wild-type protein. […] Double-phosphorylated ERK2 protein was purified from the mixture by mono-Q column separation.
Activated ERK2 Kinase Assay:
A 16-point, half-log dilution series of compounds at 41× final concentration was used for generating IC50 curves. Compound dilution series were prepared in 100% DMSO. ERK2 was preincubated with compounds for 30 minutes at ambient temperature. Reaction was initiated by addition of a substrate cocktail of ERKtide peptide and ATP and was allowed to proceed for 2-3 hours at ambient temperature. Reaction was terminated by addition of 10 μL of a 2× stop buffer consisting of 100 mM Tris-Cl [pH 7.5], 25 mM EDTA, 0.01% Tween 20, 10 μg/mL of AlphaScreen Protein A Acceptor Beads, 10 μg/mL of Streptavidin Donor Beads (PerkinElmer, Waltham, Mass.), and 1.4 μg/mL phospho-EGF Receptor (Thr669) antibody (Cat #3056, Cell Signaling Technology, Danvers, Mass.). Terminated reactions were read, after overnight incubation in the dark, on an EnVision Multilabel Plate Reader (PerkinElmer, Waltham, Mass.), with excitation and emission wavelengths set to 680 nm and 570 nm, respectively. IC50 values were determined using a four-parameter fit.

Sequence of activated ERK2 (P28482 whole entry): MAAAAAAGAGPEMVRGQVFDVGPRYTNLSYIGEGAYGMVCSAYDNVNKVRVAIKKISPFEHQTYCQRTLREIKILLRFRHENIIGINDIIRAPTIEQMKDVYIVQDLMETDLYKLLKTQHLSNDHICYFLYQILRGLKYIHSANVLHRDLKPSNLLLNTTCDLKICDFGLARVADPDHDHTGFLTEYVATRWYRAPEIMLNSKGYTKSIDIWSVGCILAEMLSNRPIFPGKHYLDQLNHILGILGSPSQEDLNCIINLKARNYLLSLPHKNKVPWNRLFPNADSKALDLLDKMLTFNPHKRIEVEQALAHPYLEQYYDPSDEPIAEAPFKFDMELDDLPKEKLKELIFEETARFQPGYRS

Row | Compound | IC50
1 | CC1(C)c2cnc(N[C@H]3CC[C@@H](O)CC3)nc2CN1C(=O)N[C@H](CO)c1ccccc1 [compound 62, N-((S)-2-hydroxy-1-phenylethyl)-2-(((1s,4R)-4-hydroxycyclohexyl)amino)-5,5-dimethyl-5H-pyrrolo[3,4-d]pyrimidine-6(7H)-carboxamide] | 896 nM
2 | CC(=O)N1CC[C@H](Nc2ncc3c(n2)CN(C(=O)N[C@H](CO)c2ccccc2)C3(C)C)C1 [compound 63, 2-(((S)-1-acetylpyrrolidin-3-yl)amino)-N-((S)-2-hydroxy-1-phenylethyl)-5,5-dimethyl-5H-pyrrolo[3,4-d]pyrimidine-6(7H)-carboxamide] | 3560 nM
3 | CC(=O)N1CC[C@@H](Nc2ncc3c(n2)CN(C(=O)N[C@H](CO)c2ccccc2)C3(C)C)C1 [compound 64, 2-(((R)-1-acetylpyrrolidin-3-yl)amino)-N-((S)-2-hydroxy-1-phenylethyl)-5,5-dimethyl-5H-pyrrolo[3,4-d]pyrimidine-6(7H)-carboxamide] | 740 nM
4 | COC(=O)N1CC[C@H](Nc2ncc3c(n2)CN(C(=O)N[C@H](CO)c2ccccc2)C3(C)C)C1 [compound 65, (S)-methyl 3-((6-(((S)-2-hydroxy-1-phenylethyl)carbamoyl)-5,5-dimethyl-6,7-dihydro-5H-pyrrolo[3,4-d]pyrimidin-2-yl)amino)pyrrolidine-1-carboxylate] | 8830 nM
5 | CC(=O)N1CC2C(C1)C2Nc1ncc2c(n1)CN(C(=O)N[C@H](CO)c1ccccc1)C2(C)C (stereo partly drawn) [compound 68, 2-((3-acetyl-3-azabicyclo[3.1.0]hexan-6-yl)amino)-N-((S)-2-hydroxy-1-phenylethyl)-5,5-dimethyl-5H-pyrrolo[3,4-d]pyrimidine-6(7H)-carboxamide] | 450 nM
6 | CC(=O)N1CC(Nc2ncc3c(n2)CN(C(=O)N[C@H](CO)c2ccccc2)C3(C)C)C1 [compound 69, (S)-2-((1-acetylazetidin-3-yl)amino)-N-(2-hydroxy-1-phenylethyl)-5,5-dimethyl-5H-pyrrolo[3,4-d]pyrimidine-6(7H)-carboxamide] | 5580 nM
7 | CC1(C)c2cnc(NC3CCS(=O)(=O)C3)nc2CN1C(=O)N[C@H](CO)c1ccccc1 (stereo partly drawn) [compound 70, 2-((1,1-dioxidotetrahydrothiophen-3-yl)amino)-N-((S)-2-hydroxy-1-phenylethyl)-5,5-dimethyl-5H-pyrrolo[3,4-d]pyrimidine-6(7H)-carboxamide] | 932 nM
8 | Cn1ccc(Nc2ncc3c(n2)CN(C(=O)N[C@H](CO)c2ccccc2)C3(C)C)n1 [compound 71, (S)-N-(2-hydroxy-1-phenylethyl)-5,5-dimethyl-2-((1-methyl-1H-pyrazol-3-yl)amino)-5H-pyrrolo[3,4-d]pyrimidine-6(7H)-carboxamide] | 2550 nM
9 | CC1(C)c2cnc(NCC3CCCCO3)nc2CN1C(=O)N[C@H](CO)c1ccccc1 (stereo partly drawn) [compound 72, N-((S)-2-hydroxy-1-phenylethyl)-5,5-dimethyl-2-(((tetrahydro-2H-pyran-2-yl)methyl)amino)-5H-pyrrolo[3,4-d]pyrimidine-6(7H)-carboxamide] | 5310 nM
10 | CC(Nc1ncc2c(n1)CN(C(=O)N[C@H](CO)c1ccccc1)C2(C)C)C1CCCO1 (stereo partly drawn) [compound 73, N-((S)-2-hydroxy-1-phenylethyl)-5,5-dimethyl-2-((1-(tetrahydrofuran-2-yl)ethyl)amino)-5H-pyrrolo[3,4-d]pyrimidine-6(7H)-carboxamide] | 315 nM
11 | CC1(C)c2cnc(NCC3CCCO3)nc2CN1C(=O)N[C@H](CO)c1ccccc1 (stereo partly drawn) [compound 75, N-((S)-2-hydroxy-1-phenylethyl)-5,5-dimethyl-2-(((tetrahydrofuran-2-yl)methyl)amino)-5H-pyrrolo[3,4-d]pyrimidine-6(7H)-carboxamide] | 2640 nM
12 | CC[C@@]1(C)c2cnc(NC3CCOCC3)nc2CN1C(=O)N[C@H](CO)c1ccccc1 [compound 79, (S)-5-ethyl-N-((S)-2-hydroxy-1-phenylethyl)-5-methyl-2-((tetrahydro-2H-pyran-4-yl)amino)-5H-pyrrolo[3,4-d]pyrimidine-6(7H)-carboxamide] | 971 nM
13 | CN1CCC(Nc2ncc3c(n2)CN(C(=O)N[C@H](CO)c2ccccc2)C3(C)C)CC1=O (stereo partly drawn) [compound 82, N-((S)-2-hydroxy-1-phenylethyl)-5,5-dimethyl-2-((1-methyl-2-oxopiperidin-4-yl)amino)-5H-pyrrolo[3,4-d]pyrimidine-6(7H)-carboxamide] | 208 nM
14 | CN1CCC(Nc2ncc3c(n2)CN(C(=O)N[C@H](CO)c2ccccc2)C3(C)C)CC1=O (stereo partly drawn) [compound 83, N-((S)-2-hydroxy-1-phenylethyl)-5,5-dimethyl-2-((1-methyl-2-oxopiperidin-4-yl)amino)-5H-pyrrolo[3,4-d]pyrimidine-6(7H)-carboxamide] | 1160 nM
15 | CN1CC(Nc2ncc3c(n2)CN(C(=O)N[C@H](CO)c2ccccc2)C3(C)C)CCC1=O (stereo partly drawn) [compound 84, N-((S)-2-hydroxy-1-phenylethyl)-5,5-dimethyl-2-((1-methyl-6-oxopiperidin-3-yl)amino)-5H-pyrrolo[3,4-d]pyrimidine-6(7H)-carboxamide] | 164 nM

Compounds with a lower IC50, results first:

Row | IC50 | Compound
16 | 30 nM | COC(=O)N1CC[C@@H](Nc2ncc3c(n2)CN(C(=O)N[C@H](CO)c2ccccc2)C3(C)C)C1 [compound 66, (R)-methyl 3-((6-(((S)-2-hydroxy-1-phenylethyl)carbamoyl)-5,5-dimethyl-6,7-dihydro-5H-pyrrolo[3,4-d]pyrimidin-2-yl)amino)pyrrolidine-1-carboxylate]
17 | 68 nM | CO[C@H]1CC[C@H](Nc2ncc3c(n2)CN(C(=O)N[C@H](CO)c2ccccc2)C3(C)C)CC1 [compound 67, N-((S)-2-hydroxy-1-phenylethyl)-2-(((1r,4S)-4-methoxycyclohexyl)amino)-5,5-dimethyl-5H-pyrrolo[3,4-d]pyrimidine-6(7H)-carboxamide]
18 | 122 nM | CC(C)Nc1ncc2c(n1)CN(C(=O)N[C@H](CO)c1ccccc1)C2(C)C [compound 74, (S)-N-(2-hydroxy-1-phenylethyl)-2-(isopropylamino)-5,5-dimethyl-5H-pyrrolo[3,4-d]pyrimidine-6(7H)-carboxamide]
19 | 31 nM | O=C(NCc1ccc(Cl)cc1)N1Cc2nc(NC3CCOCC3)ncc2C12CCC2 [compound 76, N-(4-chlorobenzyl)-2′-((tetrahydro-2H-pyran-4-yl)amino)spiro[cyclobutane-1,5′-pyrrolo[3,4-d]pyrimidine]-6′(7′H)-carboxamide]
20 | 13 nM | O=C(N[C@H](CO)c1ccccc1)N1Cc2nc(NC3CCOCC3)ncc2C12CCC2 [compound 77, (S)-N-(2-hydroxy-1-phenylethyl)-2′-((tetrahydro-2H-pyran-4-yl)amino)spiro[cyclobutane-1,5′-pyrrolo[3,4-d]pyrimidine]-6′(7′H)-carboxamide]
21 | 22 nM | CCC1(C)c2cnc(NC3CCOCC3)nc2CN1C(=O)NCc1ccc(Cl)cc1 (stereo not shown) [compound 78, N-(4-chlorobenzyl)-5-ethyl-5-methyl-2-((tetrahydro-2H-pyran-4-yl)amino)-5H-pyrrolo[3,4-d]pyrimidine-6(7H)-carboxamide]
22 | 22 nM | CC[C@]1(C)c2cnc(NC3CCOCC3)nc2CN1C(=O)N[C@H](CO)c1ccccc1 [compound 80, (R)-5-ethyl-N-((S)-2-hydroxy-1-phenylethyl)-5-methyl-2-((tetrahydro-2H-pyran-4-yl)amino)-5H-pyrrolo[3,4-d]pyrimidine-6(7H)-carboxamide]
23 | 114 nM | CC1(C)c2cnc(N[C@H]3CC[C@H](C#N)CC3)nc2CN1C(=O)N[C@H](CO)c1ccccc1 [compound 81, 2-(((1r,4S)-4-cyanocyclohexyl)amino)-N-((S)-2-hydroxy-1-phenylethyl)-5,5-dimethyl-5H-pyrrolo[3,4-d]pyrimidine-6(7H)-carboxamide]
24 | 53 nM | CC1(C)c2cnc(NC3CCC(=O)NC3)nc2CN1C(=O)N[C@H](CO)c1ccccc1 (stereo partly drawn) [compound 85, N-((S)-2-hydroxy-1-phenylethyl)-5,5-dimethyl-2-((6-oxopiperidin-3-yl)amino)-5H-pyrrolo[3,4-d]pyrimidine-6(7H)-carboxamide]
25 | 22 nM | CC1(C)c2cnc(NC3CCCCC3)nc2CN1C(=O)N[C@H](CO)c1ccccc1 [compound 86, (S)-2-(cyclohexylamino)-N-(2-hydroxy-1-phenylethyl)-5,5-dimethyl-5H-pyrrolo[3,4-d]pyrimidine-6(7H)-carboxamide]
26 | 91 nM | Cn1cc(-c2cccc(CNC(=O)N3Cc4nc(NC5CCOCC5)ncc4C3(C)C)c2)cn1 [compound 87, 5,5-dimethyl-N-(3-(1-methyl-1H-pyrazol-4-yl)benzyl)-2-((tetrahydro-2H-pyran-4-yl)amino)-5H-pyrrolo[3,4-d]pyrimidine-6(7H)-carboxamide]
27 | 11 nM | CC1(C)c2cnc(NC3CCOCC3)nc2CN1C(=O)NCc1cccc(C(N)=O)c1 [compound 88, N-(3-carbamoylbenzyl)-5,5-dimethyl-2-((tetrahydro-2H-pyran-4-yl)amino)-5H-pyrrolo[3,4-d]pyrimidine-6(7H)-carboxamide]
28 | 131 nM | CC1(C)c2cnc(NC3CCOCC3)nc2CN1C(=O)NCc1nc(-c2ccc(F)cc2)cs1 [compound 89, N-((4-(4-fluorophenyl)thiazol-2-yl)methyl)-5,5-dimethyl-2-((tetrahydro-2H-pyran-4-yl)amino)-5H-pyrrolo[3,4-d]pyrimidine-6(7H)-carboxamide]
